pKi: −log10 of the molar value.

Chain of Transient receptor potential cation channel subfamily V member 1 (O35433 whole entry): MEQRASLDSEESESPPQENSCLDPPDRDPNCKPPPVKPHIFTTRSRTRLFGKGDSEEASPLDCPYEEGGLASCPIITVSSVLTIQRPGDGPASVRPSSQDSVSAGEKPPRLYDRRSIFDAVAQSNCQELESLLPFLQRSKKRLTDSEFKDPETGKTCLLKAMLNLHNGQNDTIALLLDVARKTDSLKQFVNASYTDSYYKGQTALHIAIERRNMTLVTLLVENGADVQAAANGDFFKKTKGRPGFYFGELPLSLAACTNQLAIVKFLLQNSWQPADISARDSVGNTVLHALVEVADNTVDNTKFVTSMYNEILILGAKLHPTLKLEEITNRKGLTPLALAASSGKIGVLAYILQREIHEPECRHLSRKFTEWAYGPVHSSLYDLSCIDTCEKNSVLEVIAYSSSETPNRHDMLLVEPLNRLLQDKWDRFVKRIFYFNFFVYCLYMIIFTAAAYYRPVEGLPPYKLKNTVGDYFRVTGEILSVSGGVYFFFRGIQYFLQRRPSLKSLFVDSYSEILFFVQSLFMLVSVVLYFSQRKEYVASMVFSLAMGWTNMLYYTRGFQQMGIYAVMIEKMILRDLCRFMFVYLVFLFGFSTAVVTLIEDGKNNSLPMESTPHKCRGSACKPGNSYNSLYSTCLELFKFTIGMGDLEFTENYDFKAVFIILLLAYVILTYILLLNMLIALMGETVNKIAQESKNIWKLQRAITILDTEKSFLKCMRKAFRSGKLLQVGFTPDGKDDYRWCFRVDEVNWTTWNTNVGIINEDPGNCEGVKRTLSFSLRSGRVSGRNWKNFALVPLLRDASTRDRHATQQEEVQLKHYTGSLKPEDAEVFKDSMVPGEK

The assay concerns the target Transient receptor potential cation channel subfamily V member 1 (Rattus norvegicus, UniProt O35433). The assay is described as follows: Competition Binding Assay and Inhibition of Ca2+ Uptake Assay. As to conditions: pH 7.4; 37 °C. How it is done: Binding assay mixtures were set up and contained [3H] RTX, various concentrations of competing ligands, and rVR1-transfected CHO cells. Nonspecific binding was determined in the presence of 100 nM nonradioactive RTX. After the binding reaction, membrane-bound RTX was separated from the free by centrifugation, and the radioactivity was determined by scintillation counting. Equilibrium binding parameters (Ki, Bmax, and cooperativity) were determined by fitting the Hill equation to the measured values with the aid of the program Origin 6.0.
For orientation: pKi means the Ki on a negative log10 scale, so that one unit is a factor of ten. `CC(C)(C)c1ccc(CNC(=S)NCc2ccc(NS(C)(=O)=O)c(F)c2)cc1` [JYL1421]: the pKi is 8.04.

In turn, `COc1cc(C2(NC(=S)NCc3ccc(C(C)(C)C)cc3)CC2)ccc1NS(C)(=O)=O` [1-[(4-tert-butylphenyl)methyl]-3-[1-(4-methanesulfonamido-3-methoxyphenyl)cyclopropyl]thiourea] had a pKi of 6.61.

As for `C[C@@H](NC(=S)NCc1ccc(C(C)(C)C)cc1)c1ccc(NS(C)(=O)=O)cc1` [3-[(4-tert-butylphenyl)methyl]-1-[(1R)-1-(4-methanesulfonamidophenyl)ethyl]thiourea], the pKi is 8.35.

`C[C@@H](NC(=S)NCc1ccc(C(C)(C)C)cc1)c1ccc(NS(C)(=O)=O)c(F)c1` [3-[(4-tert-butylphenyl)methyl]-1-[(1R)-1-(3-fluoro-4-methanesulfonamidophenyl)ethyl]thiourea] gave a pKi of 7.43.

For the molecule `CC(C)(C)c1ccc(CNC(=S)NC2(c3ccc(NS(C)(=O)=O)cc3)CC2)cc1` [1-[(4-tert-butylphenyl)methyl]-3-[1-(4-methanesulfonamidophenyl)cyclopropyl]thiourea], the pKi was 7.22.

As for `CC(NC(=S)NCc1ccc(C(C)(C)C)cc1)c1ccc(NS(C)(=O)=O)cc1` (configuration not stated) [3-[(4-tert-butylphenyl)methyl]-1-[1-(4-methanesulfonamidophenyl)ethyl]thiourea], the pKi was 7.83.

The molecule `CC(C)C(NC(=S)NCc1ccc(C(C)(C)C)cc1)c1ccc(NS(C)(=O)=O)c(F)c1` (configuration not stated) [3-[(4-tert-butylphenyl)methyl]-1-[1-(3-fluoro-4-methanesulfonamidophenyl)-2-methylpropyl]thiourea] showed a pKi of 6.65.

The molecule `CCC(NC(=S)NCc1ccc(C(C)(C)C)cc1)c1ccc(NS(C)(=O)=O)c(F)c1` (configuration not stated) [3-[(4-tert-butylphenyl)methyl]-1-[1-(3-fluoro-4-methanesulfonamidophenyl)propyl]thiourea] had a pKi of 7.27.

The molecule `Oc1cc2c(cc1O)CN(C(=S)NCCc1ccc(Cl)cc1)CCC2` [N-[2-(4-chlorophenyl)ethyl]-7,8-dihydroxy-2,3,4,5-tetrahydro-1H-2-benzazepine-2-carbothioamide] showed a pKi of 6.28.

Consider `CC(C)(C)c1ccc(CNC(=S)NC(c2ccccc2)c2ccc(NS(C)(=O)=O)c(F)c2)cc1` (configuration not stated) [3-[(4-tert-butylphenyl)methyl]-1-[(3-fluoro-4-methanesulfonamidophenyl)(phenyl)methyl]thiourea], for which the pKi was 6.07. Against the preceding molecule, the pKi is 0.21 log units lower.

Regarding `COc1cc(C(C)(C)NC(=S)NCc2ccc(C(C)(C)C)cc2)ccc1NS(C)(=O)=O` [3-[(4-tert-butylphenyl)methyl]-1-[2-(4-methanesulfonamido-3-methoxyphenyl)propan-2-yl]thiourea], the pKi is 6.18.

Turning to `C[C@H](NC(=S)NCc1ccc(C(C)(C)C)cc1)c1ccc(NS(C)(=O)=O)c(F)c1` [3-[(4-tert-butylphenyl)methyl]-1-[(1S)-1-(3-fluoro-4-methanesulfonamidophenyl)ethyl]thiourea], the pKi was 5.57.

In turn, `COc1cc(C(C)NC(=S)NCc2ccc(C(C)(C)C)cc2)ccc1NS(C)(=O)=O` (configuration not stated) [3-[(4-tert-butylphenyl)methyl]-1-[1-(4-methanesulfonamido-3-methoxyphenyl)ethyl]thiourea] gave a pKi of 7.54.

For the molecule `CC(NC(=S)NCc1ccc(C(C)(C)C)cc1)c1ccc(NS(C)(=O)=O)c(F)c1` (configuration not stated) [3-[(4-tert-butylphenyl)methyl]-1-[1-(3-fluoro-4-methanesulfonamidophenyl)ethyl]thiourea], the pKi is 8.04.

`CC(C)(C)c1ccc(CNC(=S)NC(C)(C)c2ccc(NS(C)(=O)=O)c(F)c2)cc1` [3-[(4-tert-butylphenyl)methyl]-1-[2-(3-fluoro-4-methanesulfonamidophenyl)propan-2-yl]thiourea] gave a pKi of 6.01.

Molecule `CC(C)(C)c1ccc(CNC(=S)NC(Cc2ccccc2)c2ccc(NS(C)(=O)=O)c(F)c2)cc1` (configuration not stated) [3-[(4-tert-butylphenyl)methyl]-1-[1-(3-fluoro-4-methanesulfonamidophenyl)-2-phenylethyl]thiourea] showed a pKi of 6.15.

`CC(C)(C)c1ccc(CNC(=S)NC(C)(C)c2ccc(NS(C)(=O)=O)cc2)cc1` [3-[(4-tert-butylphenyl)methyl]-1-[2-(4-methanesulfonamidophenyl)propan-2-yl]thiourea] had a pKi of 5.74.

These data come from BindingDB's records for doi:10.1016/j.bmc.2007.06.041 (Seoul National University, 2007).
